Measurements from patent publication US20190105367A1, “ANTIMICROBIAL 4-OXOQUINOLIZINES” (Emergent Product Development Gaithersburg Inc., priority 2011, published 2019).
≈ marks a conversion by molar mass, not a printed value. Where two headings read alike, the source gives them in different places.

Key:
[1] = tested on: Acinetobacter sp. (H064200250); experiment: MIC without and with sub-inhibitory polymyxin B (Example 4); type: cell-based
A. baumannii A14 [2] = experiment: Preliminary MBC without and with sub-inhibitory polymyxin B (Example 4); type: cell-based, Acinetobacter baumannii; conditions: A. baumannii A14, +0.06 μg/ml PB, 2nd experiment
In short: (§1)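 After plating, cultures are held at 37° C for 18-20 hours; the endpoint is then scored by comparing colony growth against the positive control, with MBC defined as the lowest concentration showing roughly 90% reduction.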

A. baumannii A390 [3] = experiment: as above; type: cell-based, Acinetobacter baumannii; conditions: Acinetobacter baumannii, A390, A. baumannii A390, +0.06 μg/ml PB, 2nd experiment
In short: as §1

A. baumannii A473 [4] = experiment: as above; type: cell-based, Acinetobacter baumannii; conditions: A. baumannii A473, +0.06 μg/ml PB, 2nd experiment
In short: as §1

A. baumannii NCTC 13301 [5] = experiment: as above; type: cell-based, Acinetobacter baumannii; conditions: Acinetobacter baumannii
In short: as §1

A. baumannii J2 [6] = experiment: MIC without and with sub-inhibitory polymyxin B (Example 4); type: cell-based, Acinetobacter baumannii; conditions: for MIC without PB/MIC + PB: A. baumannii J2; for MIC: Acinetobacter baumannii
A. baumannii A473 [7] = experiment: as above; type: cell-based, Acinetobacter baumannii; conditions: A. baumannii A473; +0.06 μg/ml PB; 2nd experiment
A. baumannii A329 [8] = experiment: as above; type: cell-based, Acinetobacter baumannii; conditions: A. baumannii A329; +0.06 μg/ml PB; 2nd experiment
A. baumannii ATCC 19606 = experiment: as above; type: cell-based, Acinetobacter baumannii; conditions: A. baumannii ATCC 19606
A. baumannii A14 [9] = experiment: as above; type: cell-based, Acinetobacter baumannii; conditions: 1st experiment
[10] = tested on: strains of A. baumannii and one strain of Acinetobacter sp.; experiment: MIC with sub-inhibitory concentrations (0.25x MIC) of polymyxin B, panel of Acinetobacter strains (Example 4); type: cell-based
A. baumannii NCTC 13301 [11] = experiment: MIC without and with sub-inhibitory polymyxin B (Example 4); type: cell-based, Acinetobacter baumannii; conditions: +[…] PB, 2nd experiment
A. baumannii J2 [12] = experiment: Preliminary MBC without and with sub-inhibitory polymyxin B (Example 4); type: cell-based, Acinetobacter baumannii; conditions: Acinetobacter baumannii, preliminary MBC
A. baumannii A14 [13] = experiment: MIC without and with sub-inhibitory polymyxin B (Example 4); type: cell-based, Acinetobacter baumannii; conditions: A. baumannii A14; +0.06 μg/ml PB; 2nd experiment
A. baumannii A472 = experiment: Preliminary MBC without and with sub-inhibitory polymyxin B (Example 4); type: cell-based, Acinetobacter baumannii; conditions: Acinetobacter baumannii, preliminary MBC
A. baumannii A489 [14] = experiment: MIC without and with sub-inhibitory polymyxin B (Example 4); type: cell-based, Acinetobacter baumannii; conditions: for MIC without PB/MIC + PB: A. baumannii A489; for MIC: Acinetobacter baumannii
[15] = tested on: Acinetobacter sp. (H064200250); experiment: Preliminary MBC without and with sub-inhibitory polymyxin B (Example 4); type: cell-based; conditions: Acinetobacter spp. H064200250 (OXA51); +[…] PB; preliminary MBC; 2nd experiment
In short: as §1

A. baumannii A390 [16] = experiment: MIC without and with sub-inhibitory polymyxin B (Example 4); type: cell-based, Acinetobacter baumannii; conditions: +0.06 μg/ml PB, 2nd experiment
A. baumannii A329 [17] = experiment: Preliminary MBC without and with sub-inhibitory polymyxin B (Example 4); type: cell-based, Acinetobacter baumannii; conditions: A. baumannii A329, +0.06 μg/ml PB, 2nd experiment
A. baumannii A489 [18] = experiment: as above; type: cell-based, Acinetobacter baumannii; conditions: Acinetobacter baumannii, preliminary MBC
A. baumannii NCTC 13301 [19] = experiment: MIC without and with sub-inhibitory polymyxin B (Example 4); type: cell-based, Acinetobacter baumannii
A. baumannii A387 = experiment: as above; type: cell-based, Acinetobacter baumannii; conditions: A. baumannii A387
A. baumannii A14 [20] = experiment: Preliminary MBC without and with sub-inhibitory polymyxin B (Example 4); type: cell-based, Acinetobacter baumannii; conditions: A. baumannii A14; +0.06 μg/ml polymyxin B; preliminary MBC; 1st experiment
[21] = ratio, PB 0.06 μg/ml, 1st experiment

In the case of `COc1c(N2C[C@@H]3CCCN[C@@H]3C2)c(F)cc2c(=O)c(C(=O)O)cn(C3CC3)c12` [Moxifloxacin], the “MIC without PB/MIC + PB” value ([1]; Acinetobacter spp. H064200250 (OXA51), +[…] PB, 2nd experiment) is reported as 1, the “MIC without PB/MIC + PB” value ([1]; Acinetobacter spp. H064200250, ratio, PB […], 1st experiment) is reported as 1 and the MBC (A. baumannii A14 [2]) is reported as 16 µg/mL (≈ 39.9 µM). For the same compound, the MBC (A. baumannii A390 [3]) was 8 µg/mL (≈ 19.9 µM), the MBC (A. baumannii A473 [4]) was 8 µg/mL (≈ 19.9 µM) and the MBC (A. baumannii NCTC 13301 [5]; NCTC13301, A. baumannii NCTC 13301, +[…] PB, preliminary MBC, 2nd experiment) was 8 µg/mL (≈ 19.9 µM). The MBC (A. baumannii NCTC 13301 [5]; NCTC13301, read-out: MBC +[…] PB) was 128 µg/mL (≈ 319 µM), the “MIC without PB/MIC + PB” value (A. baumannii J2 [6]; +[…] PB, 2nd experiment) was 4 and the “MIC without PB/MIC + PB” value (A. baumannii J2 [6]; ratio, PB […], 1st experiment) was 4. The MIC (A. baumannii J2 [6]; J2, A. baumannii J2, +[…] PB, 2nd experiment, read-out: MIC) was 8 µg/mL (≈ 19.9 µM), the MIC (A. baumannii J2 [6]; J2, read-out: MIC +[…] PB, A. baumannii J2, +[…] polymyxin B, 1st experiment) was 8 µg/mL (≈ 19.9 µM) and the “MIC without PB/MIC + PB” value (A. baumannii A473 [7]) was 1. For the same compound, the “MIC without PB/MIC + PB” value (A. baumannii A329 [8]) was 1, the “MIC without PB/MIC + PB” value (A. baumannii ATCC 19606; +0.06 μg/ml PB, 2nd experiment) was 2 and the “MIC without PB/MIC + PB” value (A. baumannii ATCC 19606; [21]) was 1. For the same compound, the “MIC +0.06 μg/ml PB” value (A. baumannii A14 [9]; +0.06 μg/ml polymyxin B) was 32 µg/mL, the “MIC without PB/MIC + PB” value (A. baumannii A14 [9]; ratio, PB 0.06 μg/ml) was 1 and the “Range ratios MIC without PB/MIC with PB Oct. 1, 2008 n = 8” value ([10]; 1st experiment) was 0.5-4. For the same compound, the “MIC range with PB (0.25x MIC) Oct. 1, 2008 n = 8” value ([10]; 1st experiment, […] polymyxin B, ATCC 19606, A329, A390 and A473 not taken) was 4 to 128 µg/mL, the “Range ratios MIC without PB/MIC with PB Oct. 14, 2008 n = 11” value ([10]; 2nd experiment) was 1-8 and the “MIC range with PB (0.25x MIC) Oct. 14, 2008 n = 11” value ([10]; 2nd experiment, 0.06 μg/ml polymyxin B, all strains except the ATCC strain) was 4 to 32 µg/mL. The “MIC without PB/MIC + PB” value (A. baumannii NCTC 13301 [11]; A. baumannii NCTC 13301) was 8, the MIC (A. baumannii NCTC 13301 [11]; Acinetobacter baumannii, NCTC13301, A. baumannii NCTC 13301, read-out: MIC) was 8 µg/mL (≈ 19.9 µM) and the MBC (A. baumannii J2 [12]; J2, A. baumannii J2, +[…] PB, 2nd experiment) was 8 µg/mL (≈ 19.9 µM). For the same compound, the MBC (A. baumannii J2 [12]; J2, read-out: MBC +[…] PB, A. baumannii J2, +[…] polymyxin B, 1st experiment) was 8 µg/mL (≈ 19.9 µM), the MIC (A. baumannii A14 [13]) was 16 µg/mL (≈ 39.9 µM) and the “MIC without PB/MIC + PB” value (A. baumannii A14 [13]) was 2. For the same compound, the MBC (A. baumannii A472; A472, A. baumannii A472, +[…] PB, 2nd experiment) was 4 µg/mL (≈ 9.96 µM), the MBC (A. baumannii A472; A472, read-out: MBC +[…] PB, A. baumannii A472, +[…] polymyxin B, 1st experiment) was 4 µg/mL (≈ 9.96 µM) and the “MIC without PB/MIC + PB” value (A. baumannii A489 [14]; +[…] PB, 2nd experiment) was 4. For the same compound, the “MIC without PB/MIC + PB” value (A. baumannii A489 [14]; ratio, PB […], 1st experiment) was 4, the MIC (A. baumannii A489 [14]; A489, A. baumannii A489, +[…] PB, 2nd experiment, read-out: MIC) was 4 µg/mL (≈ 9.96 µM) and the MIC (A. baumannii A489 [14]; A489, read-out: MIC +[…] PB, A. baumannii A489, +[…] polymyxin B, 1st experiment) was 4 µg/mL (≈ 9.96 µM). For the same compound, the MBC [15] was 16 µg/mL (≈ 39.9 µM), the “MIC without PB/MIC + PB” value (A. baumannii A390 [16]; A. baumannii A390) was 2 and the MIC (A. baumannii A390 [16]; Acinetobacter baumannii, A390, A. baumannii A390, read-out: MIC) was 8 µg/mL (≈ 19.9 µM). For the same compound, the MBC (A. baumannii A329 [17]) was 32 µg/mL (≈ 79.7 µM), the MBC (A. baumannii A489 [18]; A489, A. baumannii A489, +[…] PB, 2nd experiment) was 4 µg/mL (≈ 9.96 µM) and the MBC (A. baumannii A489 [18]; A489, read-out: MBC +[…] PB, A. baumannii A489, +[…] polymyxin B, 1st experiment) was 4 µg/mL (≈ 9.96 µM). For the same compound, the “MIC without PB/MIC + PB” value (A. baumannii NCTC 13301 [19]; A. baumannii NCTC 13301, ratio, PB […], 1st experiment) was 1, the MIC (A. baumannii NCTC 13301 [19]; Acinetobacter baumannii, NCTC13301, read-out: MIC +[…] PB) was 128 µg/mL (≈ 319 µM) and the “MIC without PB/MIC + PB” value (A. baumannii A387; +0.06 μg/ml PB, 2nd experiment) was 1. The “MIC without PB/MIC + PB” value (A. baumannii A387; [21]) was 1 and the “MBC +0.06 μg/ml PB” value (A. baumannii A14 [20]) was 32 µg/mL.
